# Results as given in patent publication US20210046160A1 (Synthorx, Inc., priority 2019, published 2021).
# Several values for one entry are separate records, joined by “and”; a condition that tells them apart may be missing. Equal values may be shown once.
# How the values were obtained:
# [1] = PK study E3826-U1704 in naïve C57BL/6 mice (human IL-2 ELISA of plasma); assay type: in vivo
# Procedure: (§1) Terminal blood samples were collected via cardiac puncture at the points indicated. […] Plasma and blood cells (in both studies) and tumors in study E3826-U1803 were collected for PK and PD analyses.
# Bioanalysis of plasma samples was performed using a qualified human IL-2 ELISA assay (Abcam, Cambridge, UK). Concentrations of Aldesleukin, E62_30kD and P65_30kD and the internal standard in samples derived from plasma were determined using an ELISA assay. […] The PK data were imported into Phoenix WinNonlin v6.4 (Certara/Pharsight, Princeton, N.J.) for analysis. The group mean plasma concentration versus time data were analyzed with noncompartmental methods using an IV bolus administration model.
# [2] = system: pSTAT5 and proliferation in CD8+ T, NK and Treg cells; experiment: Pharmacodynamics in peripheral blood compartment (pSTAT5, Ki-67, cell counts), Example 5; assay type: in vivo, C57BL/6 mice; details: mice
# Source text: as §1
# STAT5 phosphorylation and induction of cell proliferation (the early molecular marker Ki-67 and cell counts) was used as pharmacodynamics readouts to assess the pharmacological profile of P65_30kD relative to its pharmacokinetics.
# CT-26 colon tumors = experiment: Efficacy in CT-26 tumor-bearing Balb/c mice, Studies 1-3 (tumor growth inhibition, survival); assay type: in vivo; details: for median survival time: Compound A 6 mg/kg QWx3, anti-PD-1 antibody 10 mg/kg BIWx3, or both
# Source text: Studies of Compound A as monotherapy and in combination with an anti-PD-1 antibody were undertaken in Balb/c female mice. […] Balb/c female mice, 7-8 weeks of age, with an average weight of 18 to 22 g were purchased from Taconic Biosciences by HD Biosciences for study 3. Cryogenically preserved vials of CT-26 colon cancer cells were purchased from American Tissue Type Collection (ATCC, Manassas, Va.). Cells were thawed and cultured according to the manufacturer's protocol. On the day of tumor cell inoculation, cells were washed in serum-free media, counted, and resuspended in cold serum-free media at a concentration of 250,000 (studies 1 and 2) or 300,000 (study 3) viable cells per 0.1 mL. The CT-26 cells (0.1 mL) were injected subcutaneously into the flanks of individual mice and tumors were allowed to grow.
# For studies 1 and 2 in which a combination of Compound A and an anti-PD-1 antibody were used, the antibody used was anti-mouse PD-1 (BioXcell; RMP1-14) and the control antibody was IgG1 isotype antibody (BioXcell; catalog #BP0089, lot #2A3). For study 3 in which an anti-PD-1 antibody was used, the antibody used was anti-mouse PD-1 (BioXcell; catalog #BP0146, RMP1-14, lot #695318A1) and the control antibody was IgG1 isotype antibody (BioXcell; catalog #BP0089, lot #2A3).
# Lyophilized Compound A was reconstituted into 10 mg/mL stock with 0.1 M acetic acid. It was then further diluted into working concentration with 1× phosphate buffered saline (PBS). The compound was reconstituted and diluted within an hour of dosing of animals and kept on ice until dosing. The lyophilized compound was stored at −80° C. before use. Vehicle was stored at 4° C.
# Three separate efficacy studies were performed using CT-26 tumor-bearing Balb/c mice. The design for study 1, which evaluated Compound A for dose-dependent efficacy as a single agent, is outlined in Table 19. The designs for studies 2 and 3, which evaluated the efficacy of Compound A in combination with an anti-PD-1 antibody, are outlined in Table 20 and Table 21, respectively. The route of administration for Compound A was intravenous (IV). IV dosing in the mice was done via the tail vein. The antibody was administered intraperitoneally (IP). All agents were administered based on the individual body weight of each animal obtained immediately prior to each dosing. Details on the dosing regimen are described below.
# In Study 1, CT-26 tumor-bearing mice were treated with vehicle IV once a week for a total of 3 doses (QWx3) or Compound A at 0.3, 1, or 3 mg/kg IV, either once a week for a total of three doses (QWx3), or once every 2 weeks for a total of 2 doses (Q2Wx2), starting on Day 4 following tumor cell inoculation when the average tumor volume was ˜80 mm^3.
# In Study 2, CT-26 tumor-bearing mice were treated on Day 5 following tumor cell inoculation when the average tumor volume was ˜80 mm^3. Dosing was with vehicle IV QWx3+ IgG isotype control IP or Compound A at 3 or 6 mg/kg IV, on a QWx3 dosing schedule, or anti-PD-1 antibody at 10 mg/kg IP, or the combination of Compound A at 6 mg/kg IV QWx3+ anti-PD-1 antibody at 10 mg/kg IP. The IP dosing of the antibody in all cases was twice a week for 3 weeks with a total of 6 doses (BIWx3).
# In Study 3, CT-26 tumor-bearing mice were treated on Day 7 following tumor cell inoculation when the average tumor volume was ˜70 mm3. Dosing was with vehicle IV QWx3+ IgG isotype control IP BIWx3; or Compound A at 1, 3, 6, or 9 mg/kg IV on a QWx3 dosing schedule, or anti-PD-1 antibody at 10 mg/kg IP BIWx3; or the combination of Compound A at 1, 3, or 6 mg/kg IV QWx3+ anti-PD-1 antibody at 10 mg/kg IP BIWx3.
# Animals were observed daily for clinical signs.
# Tumor growth was monitored using digital caliper measurements every 3 to 4 days until the end of the study. Tumor volume was calculated as Width^2×Length/2, where width is the smallest dimension and length is the largest. Raw tumor volume data are presented in the study reports. […]
# [3] = C57BL/6 female mice, single IV bolus 0.3 mg/kg, E62_5 kD from a separate study
substance,measurement,setting,value
P65_30kD: SEQ ID NO: 25: IL-2 (SEQ ID NO: 4) with P65 replaced by AzK click-conjugated to methoxy linear 30 kDa PEG [Compound P65_30kD],fold extended t1/2 compared to aldesleukin,[1]; 0.3 mg/kg IV,23 fold
same,fold reduced CL compared to aldesleukin,[1]; 0.3 mg/kg IV,about 198 fold
same,AUC0-t,[1]; [3],"45,600 h*ng/mL"
same,AUCINF,[1]; [3],"45,600 h*ng/mL"
same,CL,[1]; [3],0.11 mL/min/kg
same,Cmax,[1]; [3],"4,870 ng/mL"
same,Tmax,[1]; [3],1.8 min
same,Vss (distribution volume),[1]; [3],0.0824 L/kg
same,t½,[1]; [3],13.3 h
same,mean plasma concentrations measurable out to (post-dose),"[1]; single IV bolus, 120 h = last measured time point",120 h
same,"proliferative responses of CD8+ effector T cells and NK cells (not Tregs), time window",[2],72 to 120 h
same,"persistent elevation of pSTAT5 in NK and CD8+ T cells, up to",[2]; single IV dose,up to 72 h
same,"persistent elevation of pSTAT5 in Tregs, up to",[2]; single IV dose,up to 24 h
same,median survival time,CT-26 colon tumors; Study 2,27 days
same,animals surviving,"CT-26 colon tumors; Study 3, Compound A 3 mg/kg, anti-PD-1 antibody 10 mg/kg, or both, day printed as 'Compound A days'",0 of 14 animals
same,median survival time,CT-26 colon tumors; Study 3,35 days
same,animals surviving tumor-free,"CT-26 colon tumors; Study 3, Compound A 6 mg/kg, anti-PD-1 antibody 10 mg/kg, or both, day printed as 'Compound A days'",0 of 14 animals
same,animals found dead following >15% body weight loss due to treatment,"CT-26 colon tumors; Study 3, Compound A 9 mg/kg IV QWx3",2 of the 14 animals
same,% TGI (Relative to Vehicle Control),"CT-26 colon tumors; Study #1, Compound A 0.3 mg/kg IV Q2Wx2, Day 15",20%
same,% TGI (Relative to Vehicle Control),"CT-26 colon tumors; Study #1, Compound A 0.3 mg/kg IV QWx3, Day 15, listed as Compound A, 0.3 mg/kg",19%
same,% TGI (Relative to Vehicle Control),"CT-26 colon tumors; Study #1, Compound A 1 mg/kg IV Q2Wx2, Day 15",27%
same,% TGI (Relative to Vehicle Control),"CT-26 colon tumors; Study #1, Compound A 1 mg/kg IV QWx3, Day 15, listed as Compound A, 1 mg/kg",31%
same,% TGI (Relative to Vehicle Control),"CT-26 colon tumors; Study #1, Compound A 3 mg/kg IV Q2Wx2, Day 15, listed as Compound A, 3 mg/kg",45%
same,% TGI (Relative to Vehicle Control),"CT-26 colon tumors; Study #1, Compound A 3 mg/kg IV QWx3, Day 15, listed as Compound A, 3 mg/kg",52% and 51* %
same,% TGI (Relative to Vehicle Control),"CT-26 colon tumors; Study #2, Compound A 3 mg/kg IV QWx3, listed as Compound A, 3 mg/kg",56.3% and 56%
same,% TGI (Relative to Vehicle Control),"CT-26 colon tumors; Study #2, Compound A 6 mg/kg IV QWx3, listed as Compound A, 6 mg/kg",35.6% and 36* %
same,% TGI (Relative to Vehicle Control),"CT-26 colon tumors; Study #3, Compound A 1 mg/kg IV QWx3, listed as Compound A, 1 mg/kg",29.8% and 30%
same,% TGI (Relative to Vehicle Control),"CT-26 colon tumors; Study #3, Compound A 3 mg/kg IV QWx3, listed as Compound A, 3 mg/kg",58.8% and 59*** %
same,% TGI (Relative to Vehicle Control),"CT-26 colon tumors; Study #3, Compound A 6 mg/kg IV QWx3, listed as Compound A, 6 mg/kg",86.2% and 86*** %
same,% TGI (Relative to Vehicle Control),"CT-26 colon tumors; Study #3, Compound A 9 mg/kg IV QWx3, listed as Compound A, 9 mg/kg",84.8% and 85*** %
